Data reported in patent US11395857B2, “Radiolabeled melanocortin 1 receptor-specific alpha-melanocyte-stimulating hormone analogues for imaging or therapy” (PROVINCIAL HEALTH SERVICES AUTHORITY, priority 2018, dated 2022).
Where two headings read alike, the source gives them in different places.

Legend:
B16F10 mouse melanoma = assay: Biodistribution of 177Lu-labeled αMSH analogues in mice bearing B16F10 mouse melanoma; assay type: in vivo, C57BL/6J mice; details: C57BL/6J mice, B16F10 melanoma
Description: (§1) The B16-F10 mouse melanoma cells were cultured and inoculated in mice as described in Example 1.
(§2) For biodistribution studies, approximately 1-2 MBq of ^177Lu-labeled αMSH analogues via tail vein under anesthesia. At 1, 4, 24, and 120 h p.i., the mice were euthanized by CO2 inhalation. Organs/tissues were harvested and the radioactivity was measured as described in Example 1.

[1] = as above; assay type: in vivo, C57BL/6J mice; details: mouse, iv, total radioactivity, C57BL/6J mice, B16F10 melanoma
Description: as §1, §2

CCCC[C@H](NC(=O)CN1CCC(NC(=O)[C@H](CCCCNC(=O)CN2CCN(CC(=O)O)CCN(CC(=O)O)CCN(CC(=O)O)CC2)NC(=O)[C@H](CCC(=O)O)NC(=O)CCCc2ccc(I)cc2)CC1)C(=O)N[C@H]1CC(=O)NCCCC[C@@H](C(N)=O)N(C)C(=O)[C@H](Cc2c[nH]c3ccccc23)N(C)C(=O)[C@H](CCCNC(=N)N)N(C)C(=O)[C@@H](Cc2ccccc2)NC(=O)[C@H](Cc2c[nH]cn2)N(C)C1=O [^177Lu-labeled CCZ01088, metal not drawn]
Biodistribution, B16F10 tumour (B16F10 mouse melanoma; 1 h p.i.): 10.6 ± 2.95 % ID/g | Biodistribution, B16F10 tumour (B16F10 mouse melanoma; 4 h p.i.): 10.9 ± 2.22 % ID/g | Biodistribution, B16F10 tumour (B16F10 mouse melanoma; 24 h p.i.): 5.50 ± 2.36 % ID/g | Biodistribution, B16F10 tumour (B16F10 mouse melanoma; 120 h p.i.): 0.88 ± 0.58 % ID/g | tissue uptake at 1 h ([1]; male, seminal glands, 1 h p.i., read-out: Biodistribution, Seminal glands): 0.52 ± 0.15 %ID/g | tissue uptake at 4 h ([1]; male, seminal glands, 4 h p.i., read-out: Biodistribution, Seminal glands): 0.14 ± 0.04 %ID/g | tissue uptake at 24 h ([1]; male, seminal glands, 24 h p.i., read-out: Biodistribution, Seminal glands): 0.08 ± 0.07 %ID/g | tissue uptake at 120 h ([1]; male, seminal glands, 120 h p.i., read-out: Biodistribution, Seminal glands): 0.04 ± 0.03 %ID/g | tissue uptake at 4 h ([1]; male, testes, 4 h p.i., read-out: Biodistribution, Testes): 0.33 ± 0.08 %ID/g | tissue uptake at 24 h ([1]; male, testes, 24 h p.i., read-out: Biodistribution, Testes): 0.17 ± 0.01 %ID/g | tissue uptake at 120 h ([1]; male, testes, 120 h p.i., read-out: Biodistribution, Testes): 0.11 ± 0.01 %ID/g | tissue uptake at 1 h ([1]; adrenal glands, 1 h p.i., read-out: Biodistribution, Adrenal glands): 3.69 ± 2.09 %ID/g | tissue uptake at 4 h ([1]; adrenal glands, 4 h p.i., read-out: Biodistribution, Adrenal glands): 0.88 ± 0.41 %ID/g | tissue uptake at 24 h ([1]; adrenal glands, 24 h p.i., read-out: Biodistribution, Adrenal glands): 0.62 ± 0.34 %ID/g | tissue uptake at 120 h ([1]; adrenal glands, 120 h p.i., read-out: Biodistribution, Adrenal glands): 0.34 ± 0.23 %ID/g | tissue uptake at 1 h ([1]; blood, 1 h p.i., read-out: Biodistribution, Blood): 7.41 ± 1.64 %ID/g | tissue uptake at 4 h ([1]; blood, 4 h p.i., read-out: Biodistribution, Blood): 1.44 ± 0.39 %ID/g | tissue uptake at 24 h ([1]; blood, 24 h p.i., read-out: Biodistribution, Blood): 0.09 ± 0.02 %ID/g | tissue uptake at 120 h ([1]; blood, 120 h p.i., read-out: Biodistribution, Blood): 0.01 %ID/g | tissue uptake at 1 h ([1]; bone, 1 h p.i., read-out: Biodistribution, Bone): 0.98 ± 0.12 %ID/g | tissue uptake at 4 h ([1]; bone, 4 h p.i., read-out: Biodistribution, Bone): 0.3 ± 0.08 %ID/g | tissue uptake at 24 h ([1]; bone, 24 h p.i., read-out: Biodistribution, Bone): 0.23 ± 0.04 %ID/g | tissue uptake at 120 h ([1]; bone, 120 h p.i., read-out: Biodistribution, Bone): 0.13 ± 0.09 %ID/g | tissue uptake at 1 h ([1]; brain, 1 h p.i., read-out: Biodistribution, Brain): 0.13 ± 0.02 %ID/g | tissue uptake at 4 h ([1]; brain, 4 h p.i., read-out: Biodistribution, Brain): 0.04 ± 0.02 %ID/g | tissue uptake at 24 h ([1]; brain, 24 h p.i., read-out: Biodistribution, Brain): 0.02 ± 0.01 %ID/g | tissue uptake at 120 h ([1]; brain, 120 h p.i., read-out: Biodistribution, Brain): 0.01 ± 0.01 %ID/g | tissue uptake at 1 h ([1]; fat, 1 h p.i., read-out: Biodistribution, Fat): 0.65 ± 0.37 %ID/g | tissue uptake at 4 h ([1]; fat, 4 h p.i., read-out: Biodistribution, Fat): 0.16 ± 0.07 %ID/g | tissue uptake at 24 h ([1]; fat, 24 h p.i., read-out: Biodistribution, Fat): 0.06 ± 0.04 %ID/g | tissue uptake at 120 h ([1]; fat, 120 h p.i., read-out: Biodistribution, Fat): 0.03 ± 0.01 %ID/g | tissue uptake at 1 h ([1]; heart, 1 h p.i., read-out: Biodistribution, Heart): 1.84 ± 0.31 %ID/g | tissue uptake at 4 h ([1]; heart, 4 h p.i., read-out: Biodistribution, Heart): 0.4 ± 0.1 %ID/g | tissue uptake at 24 h ([1]; heart, 24 h p.i., read-out: Biodistribution, Heart): 0.13 ± 0.02 %ID/g | tissue uptake at 120 h ([1]; heart, 120 h p.i., read-out: Biodistribution, Heart): 0.07 ± 0.02 %ID/g | tissue uptake at 1 h ([1]; intestine, 1 h p.i., read-out: Biodistribution, Intestine): 1.39 ± 0.37 %ID/g | tissue uptake at 4 h ([1]; intestine, 4 h p.i., read-out: Biodistribution, Intestine): 0.37 ± 0.11 %ID/g | tissue uptake at 24 h ([1]; intestine, 24 h p.i., read-out: Biodistribution, Intestine): 0.18 ± 0.03 %ID/g | tissue uptake at 120 h ([1]; intestine, 120 h p.i., read-out: Biodistribution, Intestine): 0.43 ± 0.55 %ID/g | tissue uptake at 1 h ([1]; kidneys, 1 h p.i., read-out: Biodistribution, Kidneys): 13.2 ± 3.61 %ID/g | tissue uptake at 4 h ([1]; kidneys, 4 h p.i., read-out: Biodistribution, Kidneys): 13.5 ± 3.47 %ID/g | tissue uptake at 24 h ([1]; kidneys, 24 h p.i., read-out: Biodistribution, Kidneys): 8.1 ± 2.24 %ID/g | tissue uptake at 120 h ([1]; kidneys, 120 h p.i., read-out: Biodistribution, Kidneys): 1.85 ± 0.57 %ID/g | tissue uptake at 1 h ([1]; liver, 1 h p.i., read-out: Biodistribution, Liver): 2.72 ± 0.27 %ID/g | tissue uptake at 4 h ([1]; liver, 4 h p.i., read-out: Biodistribution, Liver): 1.98 ± 0.41 %ID/g | tissue uptake at 24 h ([1]; liver, 24 h p.i., read-out: Biodistribution, Liver): 4.7 ± 3.76 %ID/g | tissue uptake at 120 h ([1]; liver, 120 h p.i., read-out: Biodistribution, Liver): 0.55 ± 0.18 %ID/g | tissue uptake at 1 h ([1]; lungs, 1 h p.i., read-out: Biodistribution, Lungs): 5.51 ± 1.75 %ID/g | tissue uptake at 4 h ([1]; lungs, 4 h p.i., read-out: Biodistribution, Lungs): 2.34 ± 1.21 %ID/g | tissue uptake at 24 h ([1]; lungs, 24 h p.i., read-out: Biodistribution, Lungs): 1.19 ± 0.81 %ID/g | tissue uptake at 120 h ([1]; lungs, 120 h p.i., read-out: Biodistribution, Lungs): 0.1 ± 0.05 %ID/g | tissue uptake at 1 h ([1]; muscle, 1 h p.i., read-out: Biodistribution, Muscle): 0.76 ± 0.14 %ID/g | tissue uptake at 4 h ([1]; muscle, 4 h p.i., read-out: Biodistribution, Muscle): 0.17 ± 0.04 %ID/g | tissue uptake at 24 h ([1]; muscle, 24 h p.i., read-out: Biodistribution, Muscle): 0.06 ± 0.02 %ID/g | tissue uptake at 120 h ([1]; muscle, 120 h p.i., read-out: Biodistribution, Muscle): 0.03 ± 0.01 %ID/g | tissue uptake at 1 h ([1]; pancreas, 1 h p.i., read-out: Biodistribution, Pancreas): 1.23 ± 0.18 %ID/g | tissue uptake at 4 h ([1]; pancreas, 4 h p.i., read-out: Biodistribution, Pancreas): 0.31 ± 0.1 %ID/g | tissue uptake at 24 h ([1]; pancreas, 24 h p.i., read-out: Biodistribution, Pancreas): 0.1 ± 0.01 %ID/g | tissue uptake at 120 h ([1]; pancreas, 120 h p.i., read-out: Biodistribution, Pancreas): 0.06 ± 0.01 %ID/g | tissue uptake at 1 h ([1]; spleen, 1 h p.i., read-out: Biodistribution, Spleen): 1.99 ± 0.38 %ID/g | tissue uptake at 4 h ([1]; spleen, 4 h p.i., read-out: Biodistribution, Spleen): 0.83 ± 0.1 %ID/g | tissue uptake at 24 h ([1]; spleen, 24 h p.i., read-out: Biodistribution, Spleen): 1 ± 0.35 %ID/g | tissue uptake at 120 h ([1]; spleen, 120 h p.i., read-out: Biodistribution, Spleen): 0.3 ± 0.12 %ID/g | tissue uptake at 1 h ([1]; stomach, 1 h p.i., read-out: Biodistribution, Stomach): 1.2 ± 0.45 %ID/g | tissue uptake at 4 h ([1]; stomach, 4 h p.i., read-out: Biodistribution, Stomach): 0.26 ± 0.14 %ID/g | tissue uptake at 24 h ([1]; stomach, 24 h p.i., read-out: Biodistribution, Stomach): 0.31 ± 0.17 %ID/g | tissue uptake at 120 h ([1]; stomach, 120 h p.i., read-out: Biodistribution, Stomach): 1.83 ± 2.7 %ID/g | tissue uptake at 1 h ([1]; thyroid, 1 h p.i., read-out: Biodistribution, Thyroid): 1.68 ± 0.26 %ID/g | tissue uptake at 4 h ([1]; thyroid, 4 h p.i., read-out: Biodistribution, Thyroid): 0.51 ± 0.13 %ID/g | tissue uptake at 24 h ([1]; thyroid, 24 h p.i., read-out: Biodistribution, Thyroid): 0.24 ± 0.04 %ID/g | tissue uptake at 120 h ([1]; thyroid, 120 h p.i., read-out: Biodistribution, Thyroid): 0.15 ± 0.03 %ID/g | tissue to tissue ratio at 1 h ([1]; tumour/blood, 1 h p.i., read-out: Tumour/blood): 1.42 ± 0.2 | tissue to tissue ratio at 4 h ([1]; tumour/blood, 4 h p.i., read-out: Tumour/blood): 7.97 ± 2.18 | tissue to tissue ratio at 24 h ([1]; tumour/blood, 24 h p.i., read-out: Tumour/blood): 60.6 ± 23.8 | tissue to tissue ratio at 120 h ([1]; tumour/blood, 120 h p.i., read-out: Tumour/blood): 84.4 ± 47.2 | tissue to tissue ratio at 1 h ([1]; tumour/kidney, 1 h p.i., read-out: Tumour/kidney): 0.8 ± 0.09 | tissue to tissue ratio at 4 h ([1]; tumour/kidney, 4 h p.i., read-out: Tumour/kidney): 0.85 ± 0.24 | tissue to tissue ratio at 24 h ([1]; tumour/kidney, 24 h p.i., read-out: Tumour/kidney): 0.68 ± 0.22 | tissue to tissue ratio at 120 h ([1]; tumour/kidney, 120 h p.i., read-out: Tumour/kidney): 0.45 ± 0.21 | tissue to tissue ratio at 1 h ([1]; tumour/muscle, 1 h p.i., read-out: Tumour/muscle): 13.8 ± 2.48 | tissue to tissue ratio at 4 h ([1]; tumour/muscle, 4 h p.i., read-out: Tumour/muscle): 65.4 ± 13.7 | tissue to tissue ratio at 24 h ([1]; tumour/muscle, 24 h p.i., read-out: Tumour/muscle): 104 ± 53 | tissue to tissue ratio at 120 h ([1]; tumour/muscle, 120 h p.i., read-out: Tumour/muscle): 35.6 ± 22.4 | excreta dose per gram or mL at 1 h ([1]; urine, 1 h p.i.): 322 ± 306 %ID/g | excreta dose per gram or mL at 4 h ([1]; urine, 4 h p.i.): 106 ± 97.1 %ID/g | excreta dose per gram or mL at 24 h ([1]; urine, 24 h p.i.): 3.17 ± 1.25 %ID/g | excreta dose per gram or mL at 120 h ([1]; urine, 120 h p.i.): 0.51 ± 0.21 %ID/g
